“And” between values parts separate entries of the source, which are not always exact repeats. Equal entries are not always repeated. Where two headings read alike, the source gives them in different places. One block for each compound: values may come before it.
Assays:
[1] = tested on: thromboxane analog U46619 induced PAH in minipigs; test: PAH minipig model: comparison with and on top of standard of care (bosentan, sildenafil, riociguat); type: in vivo, Göttingen minipig; conditions: for BP decrease % / PAP decrease %: % change per animal; for effects on PAP and BP: bosentan 1 mg/kg, sildenafil 300 μg/kg/h, riociguat 3 μg/kg/h systemically, comparative example 11 30 and 100 μg/kg inhaled
Description: Efficacy of inhaled comparative example 11 was compared with systemically applied bosentan, sildenafil and riociguat (see FIG. 53a) in the PAH minipig model. […] Therefore inhaled application of comparative example 11 offers clear benefits as systemic effects are avoided, compared to standard of care.

[2] = tested on: allergen-induced late airway hyperresponsiveness and inflammation in sensitized mice; test: Chronic asthma model: ovalbumin sensitized BALB/c mice, airway hyperresponsiveness and BAL (C-3.3); type: in vivo, mouse; conditions: for inhibition at 0.1 mg/kg: Mus musculus, dexamethasone 18 h and 1 h before each Ova challenge, comparative example 11 high dose of 100 μg/kg 2 h before
Method: The study was conducted to investigate whether inhalative treatment with comparative example 11 has a protective effect on the experimentally allergen-induced late airway hyperresponsiveness and inflammation in sensitized mice. Female BALB/c mice were sensitized and boosted with Ovalbumin (Ova) and aluminium hydroxide adjuvant (day 0. 14 and 21) with the exception of the negative control group receiving NaCl. On day 28 and 29. the animals were challenged with Ova aerosol. On day 30, a hyperresponsiveness test followed by bronchoalveolar lavage (BAL) was performed in all animals of all groups. The treatment groups D (10 μg) and E (100 μg) were treated with comparative example 11 inhalationally 2 h before each Ova challenge. Group A and B, the positive and negative control groups, were treated correspondingly with the vehicle. The Ova-sensitized positive control group A should show the full allergic reaction and, in contrast, the sham-sensitized negative control group B should show no allergic response. As a reference group, the animals of group C were treated inhalative with the corticosteroid dexamethasone but—due to its different mechanism of action—18 h and 1 h before each Ova challenge (on day 27, 28 and 29). On day 30, 24 h after Ova challenge in the late allergic phase, lung function—especially RL—was measured in the orotracheally intubated mice and a test on airway hyperresponsiveness was performed (inhalational methacholine provocation in doubling dose steps). […] These inhibitory effects show the successful therapeutic intervention.

[3] = Thermal stability of the solid (90° C., 7 days, HPLC peak areas); type: physicochemical
Method: 0.3 mg of the test compound, e.g. comparative example 11 were solved in 0.1 ml dimethylsulfoxide and 0.4 ml acetonitrile. Then 1.0 ml water was added. For complete dissolution the HPLC vial was shaken and sonicated. This solution was immediately analyzed by HPLC (reference at t0). 0.3 mg of the test compound was weighed into another HPLC vial. The vial was capped and stored for 7 days in a heating block at 90° C.
After this time the vial was decapped and 0.1 ml dimethylsulfoxide and 0.4 ml acetonitrile were added to the stressed compound. Then 1.0 ml water was added. For complete dissolution the HPLC vial was shaken and sonicated. The sample was analyzed by HPLC (sample after 1 week). The peak areas in percentage are used for quantification.

[4] = tested on: isolated Langendorff-perfused rat heart; test: Isolated perfused heart according to Langendorff: perfusion pressure and wash-out score (C-1.2); conditions: 100 nmol/l
Method: Male Wistar rats (strain HsdCpb:WU) with a body weight of 200-250 g were anaesthetized with Narcoren® (100 mg/kg). The thorax was opened and the heart was then exposed, excised and connected to a Langendorff apparatus by placing a cannula into the aorta. The heart was perfused retrogradely at 9 ml/min at constant flow with a Krebs-Henseleit buffer solution (gassed with 95% O2 and 5% CO2, pH 7.4, 35° C.; composition in mmol/l: NaCl 118; KCl 3; NaHCO3 22; KH2PO4 1.2; MgSO4 1.2; CaCl2 1.8; Glucose 10; Na pyruvate 2). A pressure transducer registered the perfusion pressure in the perfusion system. The left ventricular pressure (LVP) was measured using a second pressure transducer connected to a water-filled balloon which was inserted into the left ventricle via the left atrium. The end diastolic pressure was initially set to 8 mm Hg by adjusting the volume of the balloon. The hearts were spontaneously beating. The signals from the pressure transducer were amplified, registered by a personal computer (Powerlab Chart software, ADInstruments).
Then the hearts were perfused for a further 120 min without the test substance (wash-out phase). The reversibility of the effect (wash-out score) was calculated as a percentage of the PP recovery after 60 min of washout related to the maximum drop of PP induced by the test compound. The wash-out score obtained in this manner was taken as a measure for the residence time of the test substance at the site of action.

[5] = tested on: thromboxane analog U46619 induced PAH in minipigs; test: Haemodynamics (PAP, BP) in the anesthetized thromboxane challenged PAH minipig after inhaled (nebulized) application (C-2.1); type: in vivo, Göttingen minipig
Method: Experiments were carried out in anesthetized Göttingen minipigs, anesthetized rats and conscious, telemetrically instrumented dogs. Acute pulmonary hypertension was induced for example by infusion of a thromboxane A2 analogon, by acute hypoxia treatment or hypoxia treatment over a number of weeks and/or by administration of monocrotaline. Test substances were applied via nebulization using the Nebutec® or Aeroneb® Pro nebulizer system, and/or by means of powder and/or solution applicators for experimental intratracheal administration (Liquid MicroSprayer®, Dry Powder Insufflator™, MicroSprayer®, Penn-Century Inc., Wyndmoor, PA, USA) or after solid nebulization inserted into the inspiration arm of the ventilation. Compounds were employed as solids or solutions depending on the molecular structure and the technical possibility depending on the experiment. The haemodynamic signals were recorded and evaluated by means of pressure transducers/amplifiers (Combitransducer B. Braun, Melsungen, Germany or CardioMEMS Inc., Atlanta, GA, USA) and Ponemah® or CardioMems® as data aquisition software. After long-term experiments (for example monocrotaline rat), it is also possible to carry out a histological evaluation.
Healthy Gottingen Minipigs® Ellegaard (Ellegaard, Denmark) of both sexes and having a weight of 2-6 kg were used. The animals were sedated by i.m. administration of about 25 mg/kg ketamine and about 10 mg/kg azaperone. Anaesthesia was initiated by i.v. administration of about 2 mg/kg ketamine and about 0.3 mg/kg midazolam. Maintenance of anaesthesia was by i.v. administration of about 7.5-30 mg/kg/h ketamine and about 1-4 mg/kg/h midazolam (rate of infusion 1-4 ml/kg/h) and about 150 μg/kg/h pancuronium bromide (for example Pancuronium-Actavis). After intubation, the animals were ventilated by the ventilator at a constant respiratory volume (10-12 ml/kg, 35 breaths/min; Avea®, Viasys Healthcare, USA, or Engstrom Carestation, GE Healthcare, Freiburg, Germany) such that an end-tidal CO2 concentration of about 5% was achieved. Ventilation was performed with room air, enriched with about 40% oxygen (normoxia). For the measurement of the haemodynamic parameters such as pulmonary arterial pressure (PAP), blood pressure (BP) and heart rate (HR), catheters were inserted into the carotid artery to measure the blood pressure, and a Swan-Ganz® catheter was introduced in a flow-directed manner via the jugular vein into the pulmonary artery. The haemodynamic signals were recorded and evaluated by means of pressure transducers (Combitransducer, B. Braun, Melsungen, Germany)/amplifiers and Ponemah® as data aquisition software.
After the instruments have been placed into the animals, continuous infusion of a thromboxane A2 analog was initiated to increase the pulmonary arterial pressure. […] D0400, or Cayman Chemical Company, cat. no. 16440), dissolved in physiological saline, were infused to achieve an increase of the mean pulmonary arterial pressure to values of over 25 mmHg. 30 minutes after the start of the infusion, a plateau was reached, and the experiment was started.
The test substances were administered as i.v. infusion or by inhalation. For the preparation of the solution for inhalation, the following procedure was adopted: For an animal having a weight of 4 kg, to prepare the stock solution (300 μg/kg), 1.2 mg of the test compound were weighed out and dissolved in a total volume of 3 ml (1% DMSO, 99% 0.2% strength citric acid solution, 1 N aqueous sodium hydroxide solution to adjust the pH to 8). The solution was then diluted to the concentration employed using 0.2% strength citric acid which had been adjusted to pH 8 beforehand with aqueous sodium hydroxide solution. In each test, 3 ml of the solution of test compound per 4 kg animal were nebulized in the inhalation arm of the respiratory circuit using the Aeroneb® Pro nebulizer system. The mean nebulization time was about 7 min from the start of the nebulization.

[6] = Bosentan 1 mg/kg systemically applied
[7] = Sildenafil 300 μg/kg/h systemically applied
[8] = inhaled 3μg/kg, 0 min vs. start inhalation
[9] = inhaled 3μg/kg, 10 min vs. start inhalation
[10] = inhaled 3μg/kg, 20 min vs. start inhalation
[11] = inhaled 3μg/kg, 30 min vs. start inhalation
[12] = inhaled 3μg/kg, 40 min vs. start inhalation
[13] = inhaled 3μg/kg, 50 min vs. start inhalation
[14] = inhaled 3μg/kg, 60 min vs. start inhalation
[15] = inhaled 3μg/kg, 70 min vs. start inhalation
[16] = inhaled 3μg/kg, 80 min vs. start inhalation
[17] = inhaled 3μg/kg, 90 min vs. start inhalation
[18] = inhaled 3μg/kg, −5 min vs. start inhalation

Structure (SMILES): COc1ccccc1Oc1c(NS(=O)(=O)c2ccc(C(C)(C)C)cc2)nc(-c2ncccn2)nc1OCCO [Bosentan, reference compound]
BP decrease % [1, 6]: −6.7% and −15.0% and −10.3% and −12.7%
PAP decrease % [1, 6]: −3.7% and 3.9% and −7.7% and −16.0%
effects on PAP and BP [1]: decrease in BP with only minor effects on PAP

Structure (SMILES): C[C@@H]1C[C@H]2[C@@H]3CCC4=CC(=O)C=C[C@]4(C)[C@@]3(F)[C@@H](O)C[C@]2(C)[C@@]1(O)C(=O)CO [dexamethasone, reference compound]
inhibition at 0.1 mg/kg ([2]; read-out: inhibition of the airway hyperresponsiveness (ED100)): 89%
inhibition at 0.1 mg/kg ([2]; read-out: inhibition of the airway hyperresponsiveness (ED150)): 70%
inhibition of the eosinophilic influx ([2]; dexamethasone inhalative): 100%

Structure (SMILES): CCCc1nn(C)c2c(=O)[nH]c(-c3cc(S(=O)(=O)N4CCN(C)CC4)ccc3OCC)nc12 [sildenafil, reference compound]
BP decrease % [1, 7]: −10.6% and −6.1% and −14.5%
PAP decrease % [1, 7]: −15.3% and −34.3% and −16.1%
effects on PAP and BP [1]: decreases in both PAP and BP

thermal stability [3]: limited thermal stability
Structure (SMILES): N#Cc1ccc2oc(-c3ccc(COc4ccccc4CCN(CCCCC(=O)O)C4CCCc5nc(C(=O)O)ccc54)cc3)nc2c1 (single isomer, unassigned) [comparative example 10, 5-{(4-carboxybutyl)[2-(2-{[4-(5-cyano-1,3-benzoxazol-2-yl)benzyl]oxy}phenyl)ethyl]amino}-5,6,7,8-tetrahydroquinoline-2-carboxylic acid]

thermal stability [3]: limited thermal stability
Structure (SMILES): O=C(O)CCCCN(CCc1ccccc1OCc1ccc(-c2nc3cc(OC(F)(F)F)ccc3o2)cc1)C1CCCc2nc(C(=O)O)ccc21 (single isomer, unassigned) [comparative example 8, 5-[(4-carboxybutyl){2-[2-({4-[5-(trifluoromethoxy)-1,3-benzoxazol-2-yl]benzyl}oxy)phenyl]ethyl}-amino]-5,6,7,8-tetrahydroquinoline-2-carboxylic acid]

Structure (SMILES): O=C(O)CCCCN(CCc1ccccc1OCc1ccc(CCc2ccccc2)cc1)Cc1ccc(C(=O)O)cc1 [Cinaciguat (comparative example 1)]
Wash-out score (%) after 60 min [4]: 29.5%
Perfusion pressure (%) (timepoint at 20 min) Mean ([4]; isolated Langendorff-perfused rat heart): 62.1%
Perfusion pressure (%) (timepoint at 90 min) Mean ([4]; wash-out phase): 69.3%
% changes in BP vs baseline [5, 8]: 100% and 99%
% changes in PAP vs baseline [5, 8]: 99%
% changes in BP vs baseline [5, 9]: 91% and 89%
% changes in PAP vs baseline [5, 9]: 101% and 100%
% changes in BP vs baseline [5, 10]: 76% and 82%
% changes in PAP vs baseline [5, 10]: 99% and 98%
% changes in BP vs baseline [5, 11]: 74% and 86%
% changes in PAP vs baseline [5, 11]: 98%
% changes in BP vs baseline [5, 12]: 73% and 89%
% changes in PAP vs baseline [5, 12]: 97% and 98%
% changes in BP vs baseline [5, 13]: 82% and 94%
% changes in PAP vs baseline [5, 13]: 97% and 98%
% changes in BP vs baseline [5, 14]: 88% and 94%
% changes in PAP vs baseline [5, 14]: 97% and 99%
% changes in BP vs baseline [5, 15]: 100% and 99%
% changes in PAP vs baseline [5, 15]: 97% and 100%
% changes in BP vs baseline [5, 16]: 103% and 100%
% changes in PAP vs baseline [5, 16]: 95% and 98%
% changes in BP vs baseline [5, 17]: 105% and 102%
% changes in PAP vs baseline [5, 17]: 95% and 99%
% changes in BP vs baseline [5, 18]: 100%
% changes in PAP vs baseline [5, 18]: 100%
% changes in PAP vs baseline ([5]; inhaled 10 μg/kg, 0 min vs. start inhalation): 100% and 101%
% changes in PAP vs baseline ([5]; inhaled 10 μg/kg, 10 min vs. start inhalation): 100%
% changes in PAP vs baseline ([5]; inhaled 10 μg/kg, 20 min vs. start inhalation): 96% and 100%
% changes in PAP vs baseline ([5]; inhaled 10 μg/kg, 30 min vs. start inhalation): 94% and 100%
% changes in PAP vs baseline ([5]; inhaled 10 μg/kg, 40 min vs. start inhalation): 95% and 98%
% changes in PAP vs baseline ([5]; inhaled 10 μg/kg, 50 min vs. start inhalation): 94% and 96%
% changes in PAP vs baseline ([5]; inhaled 10 μg/kg, 60 min vs. start inhalation): 95% and 94%
% changes in PAP vs baseline ([5]; inhaled 10 μg/kg, 70 min vs. start inhalation): 93% and 94%
% changes in PAP vs baseline ([5]; inhaled 10 μg/kg, 80 min vs. start inhalation): 94% and 92%
% changes in PAP vs baseline ([5]; inhaled 10 μg/kg, 90 min vs. start inhalation): 93% and 89%
% changes in PAP vs baseline ([5]; inhaled 10 μg/kg, −5 min vs. start inhalation): 100%
